IC50 data for 24 compounds are collected here from patent US10894788B2, “Inhibitors of cyclin-dependent kinases” (Kinnate Biopharma Inc., priority 2018, dated 2021).

The target of experiment [1] is CDK12 wt/CycK (Homo sapiens (Human), UniProt Q9NYV4). In words: Radiometric protein kinase assay (33PanQinase Activity Assay), Assay Condition A (thiol containing conditions). Particulars: thiol containing conditions (1.2 mM DTT), ATP 0.3 μM; read-out: CDK12 IC50 Condition A. The format is biochemical. In a few lines: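 Recombinant human kinase incubated with [33P]ATP, substrate and compound (10 concentrations, 1×10^−04M to 3×10^−09M, singlicate, 1% DMSO) under thiol-containing buffer conditions, 60 min at 30 °C. 33Pi incorporation counted by scintillation; residual activity normalised to no-inhibitor and no-kinase controls, IC50 derived.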
CDK12 wt/CycK, sequence (Q9NYV4 whole entry): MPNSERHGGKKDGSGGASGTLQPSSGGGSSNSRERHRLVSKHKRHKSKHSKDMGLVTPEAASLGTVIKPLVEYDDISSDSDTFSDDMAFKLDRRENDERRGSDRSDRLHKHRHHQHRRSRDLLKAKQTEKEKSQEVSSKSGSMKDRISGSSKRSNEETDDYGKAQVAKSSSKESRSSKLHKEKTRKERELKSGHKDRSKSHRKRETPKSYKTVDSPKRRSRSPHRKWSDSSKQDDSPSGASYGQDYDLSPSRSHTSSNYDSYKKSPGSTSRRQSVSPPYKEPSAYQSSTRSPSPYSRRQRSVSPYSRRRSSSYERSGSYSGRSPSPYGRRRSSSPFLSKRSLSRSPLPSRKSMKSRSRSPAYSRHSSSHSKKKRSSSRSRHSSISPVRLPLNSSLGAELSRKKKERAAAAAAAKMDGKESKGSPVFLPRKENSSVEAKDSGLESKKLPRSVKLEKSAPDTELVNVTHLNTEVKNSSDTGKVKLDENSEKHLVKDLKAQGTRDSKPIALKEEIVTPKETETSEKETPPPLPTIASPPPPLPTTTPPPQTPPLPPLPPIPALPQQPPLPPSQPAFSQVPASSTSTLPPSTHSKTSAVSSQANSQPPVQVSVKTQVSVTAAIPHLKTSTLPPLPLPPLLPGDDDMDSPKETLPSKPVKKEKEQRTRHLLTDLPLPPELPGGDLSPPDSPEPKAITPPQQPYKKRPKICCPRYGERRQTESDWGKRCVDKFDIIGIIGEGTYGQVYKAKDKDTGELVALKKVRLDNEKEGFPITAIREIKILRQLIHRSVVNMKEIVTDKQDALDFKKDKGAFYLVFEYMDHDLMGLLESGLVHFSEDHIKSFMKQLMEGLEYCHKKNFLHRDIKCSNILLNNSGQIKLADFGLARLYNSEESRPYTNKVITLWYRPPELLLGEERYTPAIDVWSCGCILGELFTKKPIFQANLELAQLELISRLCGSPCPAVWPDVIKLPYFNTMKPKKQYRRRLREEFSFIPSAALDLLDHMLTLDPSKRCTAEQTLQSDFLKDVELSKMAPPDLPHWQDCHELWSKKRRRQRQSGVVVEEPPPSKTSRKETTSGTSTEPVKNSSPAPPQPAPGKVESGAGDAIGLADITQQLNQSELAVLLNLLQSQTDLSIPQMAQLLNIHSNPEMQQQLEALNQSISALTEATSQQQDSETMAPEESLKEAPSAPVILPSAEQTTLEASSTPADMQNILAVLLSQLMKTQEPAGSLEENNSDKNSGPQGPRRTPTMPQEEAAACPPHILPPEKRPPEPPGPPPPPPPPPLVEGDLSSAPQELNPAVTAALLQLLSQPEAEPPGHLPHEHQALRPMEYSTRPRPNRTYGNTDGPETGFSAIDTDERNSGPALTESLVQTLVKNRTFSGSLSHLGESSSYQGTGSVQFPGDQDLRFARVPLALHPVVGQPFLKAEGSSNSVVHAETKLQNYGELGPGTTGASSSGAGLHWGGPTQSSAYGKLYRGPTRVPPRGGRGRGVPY
CDK12 wt/CycK, sequence (O75909 whole entry partner): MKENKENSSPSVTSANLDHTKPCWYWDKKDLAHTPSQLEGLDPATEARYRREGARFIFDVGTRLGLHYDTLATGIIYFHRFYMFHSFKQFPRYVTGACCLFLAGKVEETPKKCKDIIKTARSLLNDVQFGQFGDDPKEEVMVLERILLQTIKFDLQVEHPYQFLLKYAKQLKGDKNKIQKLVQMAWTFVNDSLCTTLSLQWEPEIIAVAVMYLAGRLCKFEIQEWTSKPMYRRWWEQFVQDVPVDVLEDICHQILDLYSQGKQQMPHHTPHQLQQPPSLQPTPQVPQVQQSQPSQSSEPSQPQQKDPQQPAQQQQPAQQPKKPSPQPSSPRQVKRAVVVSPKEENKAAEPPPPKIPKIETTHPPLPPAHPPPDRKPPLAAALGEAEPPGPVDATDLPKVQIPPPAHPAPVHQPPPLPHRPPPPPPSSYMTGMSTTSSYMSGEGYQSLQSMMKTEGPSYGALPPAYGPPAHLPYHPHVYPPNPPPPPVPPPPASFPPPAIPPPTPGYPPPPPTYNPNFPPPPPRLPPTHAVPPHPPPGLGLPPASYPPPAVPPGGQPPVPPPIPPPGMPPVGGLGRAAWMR

Experiment [2] has as its target CDK12 (Homo sapiens (Human), UniProt Q9NYV4). As to the kind of experiment: Radiometric protein kinase assay (33PanQinase Activity Assay), Assay Condition B (thiol-free conditions). Type of experiment: biochemical. To be noted: thiol-free conditions (1 mM TCEP, glutathione removed). In outline:
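Radiometric 33PanQinase assay under thiol-free conditions: glutathione removed from protein preparations and no thiol reagents in buffer. Ten concentrations, 1×10^−05 M to 3×10^−10 M, singlicate, 1% DMSO final. Residual activity normalised to no-enzyme and no-inhibitor controls; IC50 by least-squares fit.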

CDK12, sequence (Q9NYV4 whole entry): as the sequence (Q9NYV4 whole entry) above
CDK12, sequence (O75909 whole entry partner): as the sequence (O75909 whole entry partner) above

In general, IC50 refers to the concentration needed to halve the response being measured. Regarding `C=CC(=O)N(C)c1ccc(C(=O)N2CC[C@@H](Nc3ncc(Cl)cn3)C2)cc1` [Example 28, (R)—N-(4-(3-((5-chloropyrimidin-2-yl)amino)pyrrolidine-1-carbonyl)phenyl)-N-methylacrylamide], the half-inhibitory concentration (IC50) in experiment [1] and in experiment [2] was 100 to 1000 nM each time. As to `C=CC(=O)Nc1ccc(C(=O)N2CC[C@@H](Nc3ncc(Cl)c(OC)n3)C2)cc1` [Example 47, (R)—N-(4-(3-((5-chloro-4-methoxypyrimidin-2-yl)amino)pyrrolidine-1-carbonyl)phenyl)acrylamide], the IC50 in experiment [1] and in experiment [2] was less than 100 nM in each case. Turning to `C=CC(=O)Nc1ccc(C(=O)N2CC[C@@H](Nc3ncc(Br)cn3)C2)cc1` [Example 19, (R)—N-(4-(3-((5-bromopyrimidin-2-yl)amino)pyrrolidine-1-carbonyl)phenyl)acrylamide], the IC50 in experiment [1] and in experiment [2] was less than 100 nM each time. Consider `C=CC(=O)Nc1ccc(C(=O)N2CC[C@@H](Nc3cc(C)c(Cl)cn3)C2)cc1` [Example 55, (R)—N-(4-(3-((5-chloro-4-methylpyridin-2-yl)amino)pyrrolidine-1-carbonyl)phenyl)acrylamide], for which the IC50 in experiment [1] is 100 to 1000 nM; in experiment [2] it was less than 100 nM.

Regarding `C=CC(=O)Nc1ccc(C(=O)N2CC[C@@H](Nc3ncc(Cl)c(OC)n3)C2)cc1C` [Example 26, (R)—N-(4-(3-((5-chloro-4-methoxypyrimidin-2-yl)amino)pyrrolidine-1-carbonyl)-2-methylphenyl)acrylamide], the half-maximal inhibitory concentration (IC50) in experiment [1] and in experiment [2] was less than 100 nM throughout. Regarding `C=CC(=O)Nc1ccc(C(=O)N2CC[C@@H](Nc3cc(OC)c(Cl)cn3)C2)cc1` [Example 54, (R)—N-(4-(3-((5-chloro-4-methoxypyridin-2-yl)amino)pyrrolidine-1-carbonyl)phenyl)acrylamide], the IC50 in experiment [1] and in experiment [2] was less than 100 nM throughout.

Regarding `C=CC(=O)Nc1ccc(C(=O)N2CC[C@@H](Nc3ncc(Cl)c(C)n3)C2)cc1` [Example 52, (R)—N-(4-(3-((5-chloro-4-methylpyrimidin-2-yl)amino)pyrrolidine-1-carbonyl)phenyl)acrylamide], the IC50 in experiment [1] was 100 to 1000 nM; in experiment [2], less than 100 nM. On the same counts, the results for `C=CC(=O)Nc1ccc(C(=O)N2CC[C@@H](Nc3ncc(Cl)cn3)C2)cc1C` [Example 29, (R)—N-(4-(3-((5-chloropyrimidin-2-yl)amino)pyrrolidine-1-carbonyl)-2-methylphenyl)acrylamide] are 100 to 1000 nM and less than 100 nM. In experiment [2], `C=CC(=O)Nc1ccc(C(=O)N2CC[C@@H](Nc3ncc(Cl)c(OC)n3)C2)cc1N1CCCCC1` [Example 11, (R)—N-(4-(3-((5-chloro-4-methoxypyrimidin-2-yl)amino)pyrrolidine-1-carbonyl)-2-(piperidin-1-yl)phenyl)acrylamide] registered an IC50 of less than 100 nM. In experiment [2], `C=CC(=O)Nc1ccc(C(=O)N2CC[C@@H](Nc3ncc(C(F)(F)F)cn3)C2)cc1C` [Example 79, (R)—N-(2-methyl-4-(3-((5-(trifluoromethyl)pyrimidin-2-yl)amino)pyrrolidine-1-carbonyl)phenyl)acrylamide] returned an IC50 of less than 100 nM. Still for that read-out and setting: the same measure for `C=CC(=O)Nc1c(C)cc(C(=O)N2CC[C@@H](Nc3ncc(Cl)cn3)C2)cc1C` [Example 33, (R)—N-(4-(3-((5-chloropyrimidin-2-yl)amino)pyrrolidine-1-carbonyl)-2,6-dimethylphenyl)acrylamide]: 1000 to 10000 nM; for `C=CC(=O)Nc1ccc(C(=O)N2CC[C@@H](Nc3nccc(-c4cncs4)n3)C2)cc1` (stereo in doubt) [Example 48, N-{4-[3-(4-Thiazol-5-yl-pyrimidin-2-ylamino)-pyrrolidine-1-carbonyl]-phenyl}-acrylamide]: 100 to 1000 nM.

Turning to `C=CC(=O)N1CCOc2cc(C(=O)N3CC[C@@H](Nc4ncc(Cl)c(OC)n4)C3)ccc21` [Example 2, (R)-1-(7-(3-((5-chloro-4-methoxypyrimidin-2-yl)amino)pyrrolidine-1-carbonyl)-2H-benzo[b][1,4]oxazin-4(3H)-yl)prop-2-en-1-one], in experiment [2], the IC50 was in the range of 100 to 1000 nM. On the same count and under the same terms, the same measure for `C=CC(=O)Nc1ccc(C(=O)N2CC[C@@H](Nc3ncc(F)c(OC4CC4)n3)C2)cc1` [Example 71, (R)—N-(4-(3-((4-cyclopropoxy-5-fluoropyrimidin-2-yl)amino)pyrrolidine-1-carbonyl)phenyl)acrylamide]: 100 to 1000 nM; for `C=CC(=O)Nc1ccc(C(=O)N2CC[C@@H](Nc3ncc(Cl)cn3)C2)cc1OC` [Example 31, (R)—N-(4-(3-((5-chloropyrimidin-2-yl)amino)pyrrolidine-1-carbonyl)-2-methoxyphenyl)acrylamide]: less than 100 nM; for `C=CC(=O)Nc1nc(C(=O)N2CC[C@@H](Nc3ncc(Cl)c(OC)n3)C2)cs1` [Example 7, (R)-N-(4-(3-((5-chloro-4-methoxypyrimidin-2-yl)amino)pyrrolidine-1-carbonyl)thiazol-2-yl)acrylamide]: less than 100 nM.

As to `C=CC(=O)Nc1ccc(C(=O)N2CC[C@@H](Nc3ncc(Cl)c(OC)n3)C2)cc1-c1cnn(C)c1` [Example 82, (R)—N-(4-(3-((5-chloro-4-methoxypyrimidin-2-yl)amino)pyrrolidine-1-carbonyl)-2-(1-methyl-1H-pyrazol-4-yl)phenyl)acrylamide], the IC50 in experiment [2] lay in the range of 100 to 1000 nM. `C=CC(=O)Nc1ccc(C(=O)N2CC[C@@H](Nc3ncc(Cl)cn3)C2)c(C)c1` [Example 32, (R)—N-(4-(3-((5-chloropyrimidin-2-yl)amino)pyrrolidine-1-carbonyl)-3-methylphenyl)acrylamide] yielded an IC50 in experiment [2] of 100 to 1000 nM. On the same count and under the same terms, to `C=CC(=O)Nc1ccc(C(=O)N2CC[C@@H](Nc3ncc(Cl)c(OCC(F)(F)F)n3)C2)cc1` [Example 24, (R)—N-(4-(3-((5-chloro-4-(2,2,2-trifluoroethoxy)pyrimidin-2-yl)amino)pyrrolidine-1-carbonyl)phenyl)acrylamide] belongs less than 100 nM; to `C=CC(=O)Nc1ccc(C(=O)N2CC[C@@H](Nc3cnc(C(F)(F)F)cn3)C2)cc1` [Example 60, (R)—N-(4-(3-((5-(trifluoromethyl)pyrazin-2-yl)amino)pyrrolidine-1-carbonyl)phenyl)acrylamide], 100 to 1000 nM; to `C=CC(=O)Nc1ccc(C(=O)N2CC[C@@H](Nc3ncc(C)c(OC4CC4)n3)C2)cc1` [Example 81, (R)—N-(4-(3-((4-cyclopropoxy-5-methylpyrimidin-2-yl)amino)pyrrolidine-1-carbonyl)phenyl)acrylamide], 100 to 1000 nM.

As for `C=CC(=O)Nc1ccc(C(=O)N2CC[C@@H](Nc3ncc(C)cn3)C2)cc1` [Example 57, (R)—N-(4-(3-((5-methylpyrimidin-2-yl)amino)pyrrolidine-1-carbonyl)phenyl)acrylamide], in experiment [2], the half-inhibitory concentration (IC50) fell in the range of 100 to 1000 nM. Take `C=CC(=O)Nc1ccc(C(=O)N2CCC[C@@H](Nc3cnc(Cl)cn3)C2)cc1` [Example 38, (R)—N-(4-(3-((5-chloropyrazin-2-yl)amino)piperidine-1-carbonyl)phenyl)acrylamide]: the IC50 in experiment [2] is 10000 to 30000 nM. As to `C=CC(=O)N1CCOc2cc(C(=O)N3CC[C@@H](Nc4ncc(Cl)cn4)C3)ccc21` [Example 51, (R)-1-(7-(3-((5-chloropyrimidin-2-yl)amino)pyrrolidine-1-carbonyl)-2H-benzo[b][1,4]oxazin-4(3H)-yl)prop-2-en-1-one], in experiment [2], the IC50 fell in the range of 100 to 1000 nM.
